The subject of test [1] is HCV genotype 1a (H77 strain) replicon in HUH-7 cells. Nature of the test: HCV replicon luciferase reporter assay, genotype 1a. The class given is cell-based. To be noted: Hepatitis C virus, Huh-7, 72 h, HCV genotype 1a replicon luciferase, 3 days incubation, read-out: LE_1a (EC50, range). The method in brief: (§1)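 Replicon inhibition for both genotypes was measured as Renilla luciferase signal (EnduRen, 7.5 μM final, 2 h) after 3-day, 37° C exposure of replicon-bearing HUH-7 cells in 4% FCS DMEM, 0.5% DMSO. The 1b construct carries S1179I; the 1a H77 construct carries P1496L and S2204I. Twenty-point, 3-fold dilutions were fitted four-parametrically for EC50, and CC50 was taken from multiplexed Cell Titer-Blue.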
Background: Replicon systems follow genome replication, usually without infectious particles.

The subject of test [2] is HCV genotype 1b (Con1) replicon in HUH-7 cells. In words: HCV replicon luciferase reporter assay, genotype 1b. The following applies: Hepatitis C virus, Huh-7, 72 h, HCV genotype 1b replicon luciferase, 3 days incubation, read-out: LE_1b (EC50, range). The class given is cell-based. In outline: as §1

pEC50: −log10 of the molar value.

As a reminder, the pEC50 is −log10 of the EC50, conventionally taken in molar units.

Regarding `CCOc1nnc(O[C@@H]2C[C@H]3C(=O)N[C@]4(C(=O)NS(=O)(=O)C5CC5)C[C@H]4/C=C\CC[C@H](C)C[C@@H](C)[C@H](NC(=O)OC(C)(C)C(F)(F)F)C(=O)N3C2)c2ccccc12` [Compound 5036, 1,1,1-trifluoro-2-methylpropan-2-yl((2R,6S,7R,9S,13aS,14aR,16aS,Z)-14a-((cyclopropylsulfonyl)carbamoyl)-2-((4-ethoxyphthalazin-1-yl)oxy)-7,9-dimethyl-5,16-dioxo-1,2,3,5,6,7,8,9,10,11,13a,14,14a,15,16,16a-hexadecahydrocyclopropa[e]pyrrolo[1,2-a][1,4]diazacyclopentadecin-6-yl)carbamate], the pEC50 in test [1] and in test [2] was 6.99 to 8.32 each time.

In the case of `CCOc1nnc(O[C@@H]2C[C@H]3C(=O)N[C@]4(C(=O)NS(=O)(=O)C5CC5)C[C@H]4/C=C\CC[C@@H](C)C[C@@H](C)[C@H](NC(=O)OC(C)(C)C(F)(F)F)C(=O)N3C2)c2ccccc12` [Compound 5037, 1,1,1-trifluoro-2-methylpropan-2-yl((2R,6S,7R,9R,13aS,14aR,16aS,Z)-14a-((cyclopropylsulfonyl)carbamoyl)-2-((4-ethoxyphthalazin-1-yl)oxy)-7,9-dimethyl-5,16-dioxo-1,2,3,5,6,7,8,9,10,11,13a,14,14a,15,16,16a-hexadecahydrocyclopropa[e]pyrrolo[1,2-a][1,4]diazacyclopentadecin-6-yl)carbamate], the pEC50 in test [1] and in test [2] was over 8.26 throughout.

Turning to `[2H]C([2H])([2H])C(OC(=O)N[C@@H]1C(=O)N2C[C@H](Oc3nnc(OCC)c4ccccc34)C[C@H]2C(=O)N[C@]2(C(=O)NS(=O)(=O)C3CC3)C[C@H]2/C=C\CC[C@H](C)C[C@H]1C)(C([2H])([2H])[2H])C(F)(F)F` [Compound 5038], the pEC50 in test [1] and in test [2] was 6.99 to 8.32 throughout.

For `[2H]C([2H])([2H])C(OC(=O)N[C@@H]1C(=O)N2C[C@H](Oc3nnc(OCC)c4ccccc34)C[C@H]2C(=O)N[C@]2(C(=O)NS(=O)(=O)C3CC3)C[C@H]2/C=C\CC[C@@H](C)C[C@H]1C)(C([2H])([2H])[2H])C(F)(F)F` [Compound 5039], the pEC50 in test [1] and in test [2] was over 8.26 in each case.

With `CCOc1nnc(O[C@@H]2C[C@H]3C(=O)N[C@]4(C(=O)NS(=O)(=O)C5CC5)C[C@H]4/C=C\CC[C@H](C)C[C@@H](C)[C@H](NC(=O)NC(C)(C)C)C(=O)N3C2)c2ccccc12` [Compound 5040, (2R,6S,7R,9S,13aS,14aR,16aS,Z)-6-(3-(tert-butyl)ureido)-N-(cyclopropylsulfonyl)-2-((4-ethoxyphthalazin-1-yl)oxy)-7,9-dimethyl-5,16-dioxo-1,2,3,5,6,7,8,9,10,11,13a,14,14a,15,16,16a-hexadecahydrocyclopropa[e]pyrrolo[1,2-a][1,4]diazacyclopentadecine-14a-carboxamide], the pEC50 in test [1] and in test [2] was under 7.06 in each case.

Turning to `CCOc1nnc(O[C@@H]2C[C@H]3C(=O)N[C@]4(C(=O)NS(=O)(=O)C5CC5)C[C@H]4/C=C\CC[C@@H](C)C[C@@H](C)[C@H](NC(=O)NC(C)(C)C)C(=O)N3C2)c2ccccc12` [Compound 5041, (2R,6S,7R,9R,13aS,14aR,16aS,Z)-6-(3-(tert-butyl)ureido)-N-(cyclopropylsulfonyl)-2-((4-ethoxyphthalazin-1-yl)oxy)-7,9-dimethyl-5,16-dioxo-1,2,3,5,6,7,8,9,10,11,13a,14,14a,15,16,16a-hexadecahydrocyclopropa[e]pyrrolo[1,2-a][1,4]diazacyclopentadecine-14a-carboxamide], the pEC50 was over 8.26 in test [1] and 6.99 to 8.32 in test [2].

In the case of `CCOc1nnc(O[C@@H]2C[C@H]3C(=O)N[C@]4(C(=O)NS(=O)(=O)C5CC5)C[C@H]4/C=C\CC[C@H](C)C[C@@H](CC)[C@H](NC(=O)OC(C)(C)C)C(=O)N3C2)c2ccccc12` [Compound 5042, tert-butyl ((2R,6S,7R,9S,13aS,14aR,16aS,Z)-14a-((cyclopropylsulfonyl)carbamoyl)-2-((4-ethoxyphthalazin-1-yl)oxy)-7-ethyl-9-methyl-5,16-dioxo-1,2,3,5,6,7,8,9,10,11,13a,14,14a,15,16,16a-hexadecahydrocyclopropa[e]pyrrolo[1,2-a][1,4]diazacyclopentadecin-6-yl)carbamate], the pEC50 in test [1] and in test [2] was 6.99 to 8.32 in each case.

Turning to `CCOc1nnc(O[C@@H]2C[C@H]3C(=O)N[C@]4(C(=O)NS(=O)(=O)C5CC5)C[C@H]4/C=C\CC[C@@H](C)C[C@@H](CC)[C@H](NC(=O)OC(C)(C)C)C(=O)N3C2)c2ccccc12` [Compound 5043, tert-butyl ((2R,6S,7R,9R,13aS,14aR,16aS,Z)-14a-((cyclopropylsulfonyl)carbamoyl)-2-((4-ethoxyphthalazin-1-yl)oxy)-7-ethyl-9-methyl-5,16-dioxo-1,2,3,5,6,7,8,9,10,11,13a,14,14a,15,16,16a-hexadecahydrocyclopropa[e]pyrrolo[1,2-a][1,4]diazacyclopentadecin-6-yl)carbamate], the pEC50 in test [1] and in test [2] was over 8.26 throughout.

For the compound `CCOc1nnc(O[C@@H]2C[C@H]3C(=O)N[C@]4(C(=O)NS(=O)(=O)C5CC5)C[C@H]4/C=C\CC[C@H](C)C[C@@H](CC)[C@H](NC(=O)OC(C)(C)C(F)(F)F)C(=O)N3C2)c2ccccc12` [Compound 5044, 1,1,1-trifluoro-2-methylpropan-2-yl((2R,6S,7R,9S,13aS,14aR,16aS,Z)-14a-((cyclopropylsulfonyl)carbamoyl)-2-((4-ethoxyphthalazin-1-yl)oxy)-7-ethyl-9-methyl-5,16-dioxo-1,2,3,5,6,7,8,9,10,11,13a,14,14a,15,16,16a-hexadecahydrocyclopropa[e]pyrrolo[1,2-a][1,4]diazacyclopentadecin-6-yl)carbamate], the pEC50 in test [1] and in test [2] was 6.99 to 8.32 in each case.

Turning to `CCOc1nnc(O[C@@H]2C[C@H]3C(=O)N[C@]4(C(=O)NS(=O)(=O)C5CC5)C[C@H]4/C=C\CC[C@@H](C)C[C@@H](CC)[C@H](NC(=O)OC(C)(C)C(F)(F)F)C(=O)N3C2)c2ccccc12` [Compound 5045, 1,1,1-trifluoro-2-methylpropan-2-yl((2R,6S,7R,9R,13aS,14aR,16aS,Z)-14a-((cyclopropylsulfonyl)carbamoyl)-2-((4-ethoxyphthalazin-1-yl)oxy)-7-ethyl-9-methyl-5,16-dioxo-1,2,3,5,6,7,8,9,10,11,13a,14,14a,15,16,16a-hexadecahydrocyclopropa[e]pyrrolo[1,2-a][1,4]diazacyclopentadecin-6-yl)carbamate], the pEC50 in test [1] and in test [2] was over 8.26 throughout.

As for `CCOc1nnc(O[C@@H]2C[C@H]3C(=O)N[C@]4(C(=O)NS(=O)(=O)C5(C)CC5)C[C@H]4/C=C\CC[C@H](C)C[C@@H](CC)[C@H](NC(=O)OC(C)(C)C)C(=O)N3C2)c2ccccc12` [Compound 5046, tert-butyl ((2R,6S,7R,9S,13aS,14aR,16aS,Z)-2-((4-ethoxyphthalazin-1-yl)oxy)-7-ethyl-9-methyl-14a-(((1-methylcyclopropyl)sulfonyl)carbamoyl)-5,16-dioxo-1,2,3,5,6,7,8,9,10,11,13a,14,14a,15,16,16a-hexadecahydrocyclopropa[e]pyrrolo[1,2-a][1,4]diazacyclopentadecin-6-yl)carbamate], the pEC50 was 6.99 to 8.32 in test [1] and over 8.26 in test [2].

On to `CCOc1nnc(O[C@@H]2C[C@H]3C(=O)N[C@]4(C(=O)NS(=O)(=O)C5(C)CC5)C[C@H]4/C=C\CC[C@@H](C)C[C@@H](CC)[C@H](NC(=O)OC(C)(C)C)C(=O)N3C2)c2ccccc12` [Compound 5047, tert-butyl ((2R,6S,7R,9R,13aS,14aR,16aS,Z)-2-((4-ethoxyphthalazin-1-yl)oxy)-7-ethyl-9-methyl-14a-(((1-methylcyclopropyl)sulfonyl)carbamoyl)-5,16-dioxo-1,2,3,5,6,7,8,9,10,11,13a,14,14a,15,16,16a-hexadecahydrocyclopropa[e]pyrrolo[1,2-a][1,4]diazacyclopentadecin-6-yl)carbamate], for which the pEC50 in test [1] and in test [2] was over 8.26 in each case.

Take `CCOc1nnc(O[C@@H]2C[C@H]3C(=O)N[C@]4(C(=O)NS(=O)(=O)C5(C)CC5)C[C@H]4/C=C\CC[C@H](C)C[C@@H](CC)[C@H](NC(=O)OC(C)(C)C(F)(F)F)C(=O)N3C2)c2ccccc12` [Compound 5048, 1,1,1-trifluoro-2-methylpropan-2-yl((2R,6S,7R,9S,13aS,14aR,16aS,Z)-2-((4-ethoxyphthalazin-1-yl)oxy)-7-ethyl-9-methyl-14a-(((1-methylcyclopropyl)sulfonyl)carbamoyl)-5,16-dioxo-1,2,3,5,6,7,8,9,10,11,13a,14,14a,15,16,16a-hexadecahydrocyclopropa[e]pyrrolo[1,2-a][1,4]diazacyclopentadecin-6-yl)carbamate]: the pEC50 in test [1] and in test [2] was 6.99 to 8.32 throughout.

As to `CCOc1nnc(O[C@@H]2C[C@H]3C(=O)N[C@]4(C(=O)NS(=O)(=O)C5(C)CC5)C[C@H]4/C=C\CC[C@@H](C)C[C@@H](CC)[C@H](NC(=O)OC(C)(C)C(F)(F)F)C(=O)N3C2)c2ccccc12` [Compound 5049, 1,1,1-trifluoro-2-methylpropan-2-yl((2R,6S,7R,9R,13aS,14aR,16aS,Z)-2-((4-ethoxyphthalazin-1-yl)oxy)-7-ethyl-9-methyl-14a-(((1-methylcyclopropyl)sulfonyl)carbamoyl)-5,16-dioxo-1,2,3,5,6,7,8,9,10,11,13a,14,14a,15,16,16a-hexadecahydrocyclopropa[e]pyrrolo[1,2-a][1,4]diazacyclopentadecin-6-yl)carbamate], the pEC50 in test [1] and in test [2] was over 8.26 throughout.

(Values after patent publication US9499550B2 (BRISTOL-MYERS SQUIBB COMPANY, priority 2012, dated 2016).)
